Test system: Mouse B16 melanoma cells
Test: Melanin production inhibition test (quantification of melanin)
Format: cell-based
Conditions: for Inhibitory effect on melanin production: class of minimum non-cytotoxic concentration giving melanin amount 80% or less of solvent group, B16 cells, three days after addition; for Minimum concentration (%): minimum concentration at which an inhibitory effect on melanin production was significantly exhibited in melanoma B16 cells
Protocol: A test for melanin production inhibition by the compounds of the formula (1) was conducted. The test method is as follows.
Melanin Production Inhibition Test
(1) Inoculation of Cells and Addition of Test Substances
Mouse B16 melanoma cells were inoculated in a six well plate at 100,000 cells/well. The next day, test substance solutions (solvent: DMSO) were added.
(3) Quantification of Melanin
The cells after the cell proliferation test were washed with PBS three times, and then lysed by addition of 200 μL of 1M NaOH to measure an absorbance at 475 nm. Using the value thus measured as a relative value of the melanin amount, a ratio of the melanin amount (%) of the test substance-added group to the test substance-absent group (group in which only the solvent was added) was calculated. The lower the ratio of the melanin amount, the higher the melanin production-inhibitory effect. […] The inhibitory effect on melanin production was evaluated according to the following criteria.
⊚: the minimum concentration for inhibition of melanin production was 1 ppm or less.
◯: the minimum concentration for inhibition of melanin production was more than 1 ppm and 10 ppm or less.

Row | Structure (SMILES) | Inhibitory effect on melanin production | Minimum concentration (%)
1 | Cc1cc(C)nc(-n2nc(C)cc2C)n1 [Compound 1, 2-(3,5-dimethylpyrazol-1-yl)-4,6-dimethylpyrimidine] | ⊚ (the minimum concentration for inhibition of melanin production was 1 ppm or less) | 1 × 10^−6%
2 | Cc1cc(C)nc(-n2nc(C)cc2C)n1.Cl [Compound 2, 2-(3,5-dimethylpyrazol-1-yl)-4,6-dimethylpyrimidine hydrochloride] | ⊚ (the minimum concentration for inhibition of melanin production was 1 ppm or less) | –
3 | Cc1cc(C)n(-c2nc(C)c(C)c(C)n2)n1 [Compound 5, 2-(3,5-dimethylpyrazol-1-yl)-4,5,6-trimethylpyrimidine] | ⊚ (the minimum concentration for inhibition of melanin production was 1 ppm or less) | –
4 | CCc1cc(CC)n(-c2nc(C)cc(C)n2)n1 [Compound 3] | ⊚ (the minimum concentration for inhibition of melanin production was 1 ppm or less) | 3 × 10^−6%
5 | Cc1cc(C)nc(-n2nc(C)c(C)c2C)n1 [Compound 4] | ⊚ (the minimum concentration for inhibition of melanin production was 1 ppm or less) | 3 × 10^−6%

— US8324234B2, “Method for inhibiting melanin production and whitening skin with pyrimidylpyrazole compounds or pharmaceutically acceptable salts thereof” (Shiseido Company Ltd., priority 2008, dated 2012)
